Results published in patent US20240270762A1, “PENICILLIN-BINDING PROTEIN INHIBITORS” (priority 2021, published 2024).
≈ marks a conversion by molar mass, not a printed value.

Assays:
N. gonorrhoeae WHO Z = assay: Liquid broth MIC in Fastidious broth; details: Neisseria gonorrhoeae, read-out: Minimum Inhibitory Concentration, WHO Z
N. gonorrhoeae WHO Q = assay: Liquid broth MIC in Fastidious broth; details: Neisseria gonorrhoeae, read-out: Minimum Inhibitory Concentration, WHO Q
N. gonorrhoeae MS11 = assay: Liquid broth MIC in Fastidious broth; details: Neisseria gonorrhoeae, MS11, read-out: Minimum Inhibitory Concentration, MS11
Method: Additional antibacterial testing of the series was performed in 8 reference strains of N. gonorrhoeae (ATCC 49226, FA1090, MS 11, WHO G, WHO L, WHO M, WHO K, WHO X, WHO Z, WHO Q, CDC-0197). ATCC 49226, FA1090, MS11, WHO G, WHO L, and WHO M produce wild type or wild-type like PBP2. WHO K, WHO X, WHO Z, WHO Q, and CDC-0197 produce mosaic PBP2. Liquid broth-based assays were used for antibacterial testing of PBP inhibitors in Neisseria gonorrhoeae. Briefly, cryo-preserved bacterial cultures of clinical strains were streaked for isolation on Chocolate Agar (72 g/L (2×) GC Agar Base (BD #228950) and 2% (2×) Hemoglobin was autoclaved at 121° C. for 20 minutes to sterilize. Once cooled to ˜50° C. the 2×GC Agar Base and 2× Hemoglobin solutions are combined and 1% IsoVitaleX Enrichment (BD #211876) was added to the solution). Strains were incubated at 36° C. and 5% CO2 to allow growth of colonies, 24 hours before inoculum preparation. 2-fold serial dilutions of test compounds were conducted in a 96 well plate with a final volume of 75 μL per well at 2-fold the final desired concentration in Fastidious broth (Remel #R07664). For preparation of assay inoculum, a direct suspension was prepared by aseptically swabbing 10-15 colonies from agar plates into culture tubes containing 2 mL of fresh sterile saline. After the dilution plates were set up, direct suspensions were then diluted in a cuvette containing sterile saline and the optical density was measured at 600 nm. Inocula were diluted such that 75 μL of this culture in Fastidious broth results in a starting bacterial concentration of 5×10^5 CFU/mL when added to the dilution plates. The plates were incubated for ˜24 hours at 36° C. and 5% CO2.

N. gonorrhoeae WHO K = assay: Liquid broth MIC in Fastidious broth; details: Neisseria gonorrhoeae, read-out: Minimum Inhibitory Concentration, WHO K
[1] = tested on: N. gonorrhoeae ATCC 49226; assay: Liquid broth MIC in Fastidious broth; details: Neisseria gonorrhoeae, ATCC49226, read-out: Minimum Inhibitory Concentration, ATCC 49226
N. gonorrhoeae CDC-0197 = assay: Liquid broth MIC in Fastidious broth; details: Neisseria gonorrhoeae, CDC0197, read-out: Minimum Inhibitory Concentration, CDC-0197
[2] = molecular target: T1, PBP1a from Acinetobacter baumannii (ATCC 19606) (Acinetobacter baumannii, UniProt A0ABX6CK30); assay: Bocillin-FL fluorescence polarization competition binding, A. baumannii PBP1a; details: fluorescence polarization competition binding assay using Bocillin-FL; read-out: A. baumannii PBP1a Potency
T1 sequence (A0ABX6CK30 1-851): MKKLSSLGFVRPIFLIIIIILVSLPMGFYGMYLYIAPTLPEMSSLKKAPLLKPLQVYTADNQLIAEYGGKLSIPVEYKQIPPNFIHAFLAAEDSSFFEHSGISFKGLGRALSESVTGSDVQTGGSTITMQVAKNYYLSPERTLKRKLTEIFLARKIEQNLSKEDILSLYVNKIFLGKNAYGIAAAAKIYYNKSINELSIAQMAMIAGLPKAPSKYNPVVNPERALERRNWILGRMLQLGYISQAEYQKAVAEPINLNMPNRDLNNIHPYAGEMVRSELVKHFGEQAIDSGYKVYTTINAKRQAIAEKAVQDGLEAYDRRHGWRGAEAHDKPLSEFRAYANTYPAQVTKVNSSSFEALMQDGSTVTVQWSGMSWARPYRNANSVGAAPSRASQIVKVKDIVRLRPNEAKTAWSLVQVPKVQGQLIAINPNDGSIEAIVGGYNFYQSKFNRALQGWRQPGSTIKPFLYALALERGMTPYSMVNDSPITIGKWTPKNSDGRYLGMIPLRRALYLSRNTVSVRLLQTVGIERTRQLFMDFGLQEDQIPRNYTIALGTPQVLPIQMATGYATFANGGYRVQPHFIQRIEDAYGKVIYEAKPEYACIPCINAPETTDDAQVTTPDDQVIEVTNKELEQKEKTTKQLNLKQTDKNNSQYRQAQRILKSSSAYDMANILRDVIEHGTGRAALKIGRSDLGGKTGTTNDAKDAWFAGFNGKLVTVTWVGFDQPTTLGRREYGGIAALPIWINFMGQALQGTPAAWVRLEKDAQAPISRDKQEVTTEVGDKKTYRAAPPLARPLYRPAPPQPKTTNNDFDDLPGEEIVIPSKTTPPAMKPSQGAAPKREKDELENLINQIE
Outline: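 Purified PBPs pre-incubated with inhibitor (E. coli PBP3 1.5 μM, 30 min; P. aeruginosa PBP3 0.75 μM, A. baumannii PBP1a 1 μM and PBP3 0.2 μM, 15 min), then Bocillin-FL 0.1 μM (0.05 μM for PBP1a) added; FP read up to 60 min. EC50 = concentration halving bound Bocillin-FL.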

N. gonorrhoeae FA1090 = assay: Liquid broth MIC in Fastidious broth; details: Neisseria gonorrhoeae, FA1090, read-out: Minimum Inhibitory Concentration, FA 1090

Row | SMILES | MIC (N. gonorrhoeae WHO Z) | MIC (N. gonorrhoeae WHO Q) | MIC (N. gonorrhoeae MS11) | MIC (N. gonorrhoeae WHO K) | MIC [1] | MIC (N. gonorrhoeae CDC-0197) | IC50 [2] | MIC (N. gonorrhoeae FA1090)
1 | O=C(NCCCN1CCN(C(=O)N[C@H](C(=O)N[C@H]2Cc3ccc(F)c(C(=O)O)c3OB2O)c2cc(F)c(O)c(O)c2Cl)C(=O)C1=O)c1cccc(O)c1Cl [Example 302, (R)-3-((S)-2-(4-(3-(2-chloro-3-hydroxybenzamido)propyl)-2,3-dioxopiperazine-1-carboxamido)-2-(2-chloro-5-fluoro-3,4-dihydroxyphenyl)acetamido)-7-fluoro-2-hydroxy-3,4-dihydro-2H-benzo[e][1,2]oxaborinine-8-carboxylic acid] | > 64 µg/mL | > 64 µg/mL | > 64 µg/mL | > 64 µg/mL | > 64 µg/mL | > 64 µg/mL | > 250 µM | > 64 µg/mL
2 | O=C(NCCCN1CCN(C(=O)N[C@@H](C(=O)N[C@H]2Cc3ccc(F)c(C(=O)O)c3OB2O)c2cc(F)c(O)c(O)c2Cl)C(=O)C1=O)c1cccc(O)c1Cl [Example 303, (R)-3-((R)-2-(4-(3-(2-chloro-3-hydroxybenzamido)propyl)-2,3-dioxopiperazine-1-carboxamido)-2-(2-chloro-5-fluoro-3,4-dihydroxyphenyl)acetamido)-7-fluoro-2-hydroxy-3,4-dihydro-2H-benzo[e][1,2]oxaborinine-8-carboxylic acid] | 16 to 32 µg/mL (≈ 20.1 to 40.3 µM) | > 64 µg/mL | 4 to 8 µg/mL (≈ 5.04 to 10.1 µM) | > 64 µg/mL | 4 to 8 µg/mL (≈ 5.04 to 10.1 µM) | 16 to 32 µg/mL (≈ 20.1 to 40.3 µM) | > 250 µM | 1 to 2 µg/mL (≈ 1.26 to 2.52 µM)
3 | O=C(NCCCN1CCN(C(=O)NC(C(=O)N[C@H]2Cc3ccc(F)c(C(=O)O)c3OB2O)c2cc(F)c(O)c(O)c2Cl)C(=O)C1=O)c1ccc(O)c(F)c1 (stereo partly drawn) [Example 304, (3R)-3-(2-(2-chloro-5-fluoro-3,4-dihydroxyphenyl)-2-(4-(3-(3-fluoro-4-hydroxybenzamido)propyl)-2,3-dioxopiperazine-1-carboxamido)acetamido)-7-fluoro-2-hydroxy-3,4-dihydro-2H-benzo[e][1,2]oxaborinine-8-carboxylic acid] | > 64 µg/mL | > 64 µg/mL | 16 to 32 µg/mL (≈ 20.6 to 41.1 µM) | > 64 µg/mL | 16 to 32 µg/mL (≈ 20.6 to 41.1 µM) | > 64 µg/mL | > 250 µM | 1 to 2 µg/mL (≈ 1.29 to 2.57 µM)
4 | O=C(NCCCN1CCN(C(=O)NC(C(=O)N[C@H]2Cc3ccc(F)c(C(=O)O)c3OB2O)c2cc(F)c(O)c(O)c2Cl)C(=O)C1=O)c1ccc(O)c(Cl)c1 (stereo partly drawn) [Example 305, (3R)-3-(2-(4-(3-(3-chloro-4-hydroxybenzamido)propyl)-2,3-dioxopiperazine-1-carboxamido)-2-(2-chloro-5-fluoro-3,4-dihydroxyphenyl)acetamido)-7-fluoro-2-hydroxy-3,4-dihydro-2H-benzo[e][1,2]oxaborinine-8-carboxylic acid] | > 64 µg/mL | > 64 µg/mL | 16 to 32 µg/mL (≈ 20.1 to 40.3 µM) | > 64 µg/mL | 16 to 32 µg/mL (≈ 20.1 to 40.3 µM) | > 64 µg/mL | > 250 µM | 1 to 2 µg/mL (≈ 1.26 to 2.52 µM)
5 | O=C(NCCCN1CCN(C(=O)NC(C(=O)N[C@H]2Cc3ccc(F)c(C(=O)O)c3OB2O)c2cc(F)c(O)c(O)c2Cl)C(=O)C1=O)c1ccc(O)c(F)c1F (stereo partly drawn) [Example 306, (3R)-3-(2-(2-chloro-5-fluoro-3,4-dihydroxyphenyl)-2-(4-(3-(2,3-difluoro-4-hydroxybenzamido)propyl)-2,3-dioxopiperazine-1-carboxamido)acetamido)-7-fluoro-2-hydroxy-3,4-dihydro-2H-benzo[e][1,2]oxaborinine-8-carboxylic acid] | > 64 µg/mL | > 64 µg/mL | 16 to 32 µg/mL (≈ 20.1 to 40.2 µM) | > 64 µg/mL | 16 to 32 µg/mL (≈ 20.1 to 40.2 µM) | > 64 µg/mL | > 250 µM | 1 to 2 µg/mL (≈ 1.26 to 2.51 µM)
6 | O=C(NCCCN1CCN(C(=O)NC(C(=O)N[C@H]2Cc3ccc(F)c(C(=O)O)c3OB2O)c2cc(F)c(O)c(O)c2Cl)C(=O)C1=O)c1ccc(O)cc1O (stereo partly drawn) [Example 307, (3R)-3-(2-(2-chloro-5-fluoro-3,4-dihydroxyphenyl)-2-(4-(3-(2,4-dihydroxybenzamido)propyl)-2,3-dioxopiperazine-1-carboxamido)acetamido)-7-fluoro-2-hydroxy-3,4-dihydro-2H-benzo[e][1,2]oxaborinine-8-carboxylic acid] | > 64 µg/mL | > 64 µg/mL | 16 to 32 µg/mL (≈ 20.6 to 41.2 µM) | > 64 µg/mL | 16 to 32 µg/mL (≈ 20.6 to 41.2 µM) | > 64 µg/mL | > 250 µM | 1 to 2 µg/mL (≈ 1.29 to 2.58 µM)
